Patent US11639332B2, “Methods and compositions of isoindoline-1,3-dione and isoindole prodrugs useful for treating cancer, ulcerative colitis and related inflammatory diseases” (AMGEN (EUROPE) GMBH, priority 2018, dated 2023)
Where “and” joins values, the source holds several entries; their conditions need not be identical. Equal entries are not always repeated.

System: Trinitrobenzenesulfonic Acid (TNBS) Rat Model of Colonic Inflammation
Test: Trinitrobenzenesulfonic acid (TNBS) rat model of colonic inflammation, oral treatment Days 1-6, evaluation Day 7
Assay type: in vivo, Sprague-Dawley rats
Parameters: key to Average Colonic Score: sum of adhesions, strictures, ulcers and wall thickness scores
Protocol: In Vivo Efficacy of PDE4 Inhibitor Prodrug in the Trinitrobenzenesulfonic Acid (TNBS) Rat Model of Colonic Inflammation
2. 1.62 g of prodrug from Example 2 (WB301), lot 2 (MW 587.12) in a clear 20 mL glass vial (orange material) which was stored at 4-8° C.
38 Sprague-Dawley rats (Harlan Sprague-Dawley, Inc. male, PO #599229, R #3450, 200-220 g) were received, individually examined and housed in nine cages of four rats each and one cage containing two rats. No clinical signs of disease or distress were observed. The rats were placed in quarantine with daily inspections. The rats were ear notched (SOP 800) for identification purposes, weighed (RESULTS), and sorted into four treatment groups of eight rats each based upon average body weight. The rats were individually examined and found to be free of any clinical signs of disease or distress. No deaths were recorded during the quarantine period. The rats were released to routine maintenance.
A 16 mg/ml TNBS solution was prepared be adding 2.729 ml picrylsulfonic acid solution (1 M, FLU KA, Cat. 92822, lot CDBB6609V) to 22.271 ml de-ionized water (dH20) and 25 ml 100% ethanol (200 proof, Sigma, Cat. E7023, lot SHBH3633V).
The rats were weighed (RESULTS), anesthetized (SOP1810) and Groups 1-4 were intra-rectally instilled with 4 ml/kg TNBS solution (64 mg/kg), the anus was pinched closed and the rat held inverted for one minute.
400 mg (-)riboflavin was dissolved in 40 ml DMSO (Sigma, Cat. D5879, lot 16K0127) by sonication in a 40° C. water bath for 20 minutes in an amber glass bottle, followed by storage at room temperature overnight to prepare a 10 mg/ml yellow solution.
135 mg NaOH (Fisher Scientific, Cat. S320, lot 066620) was dissolved in 100 ml dH2O to prepare a 1.35 mg/ml solution. 128.46 mg prednisolone 21-hemisuccinate sodium salt (Sigma, Cat. P4153, lot BCBB6136V, salt factor 1.339) was dissolved in 9.59 ml (-)riboflavin/DMSO followed by addition of 9.59 ml PEG400 (Sigma, Cat. 91893, lot BCBB7720). 28.781 aqueous NaOH was added with sonication to prepare a 2 mg/ml solution for Group 4. 44 mg WB301 was vortexed in 2.19 ml (-)riboflavin/DMSO to yield an orange solution followed by addition of 2.19 ml PEG400. 6.621 ml aqueous NaOH was added with sonication to prepare a 4 mg/ml solution for Group 1. 132 mg WB301 was vortexed in 2.19 ml (-)riboflavin/DMSO to yield an orange solution followed by addition of 2.19 ml PEG400. 6.621 ml aqueous NaOH was added with sonication to prepare a 12 mg/ml solution for Group 2. 6.6 mg apremilast was vortexed in 2.2 ml (-)riboflavin/DMSO to yield an orange solution followed by addition of 6.6 ml PEG400. 2.2 ml dH2O was added to prepare a 0.6 mg/ml solution for Group 3.
The rats were weighed (RESULTS) and daily oral (PO, SOP 1651) dosing at 5 ml/kg was initiated as in TABLE 1.
The rats were weighed (RESULTS) and the animals were dosed as described above daily. WB301 and apremilast solutions were prepared fresh daily as described above.
The rats were weighed (RESULTS) anesthetized, a midline incision was made in the abdomen and the colon was evaluated for adhesions and stricture (RESULTS). The colon was removed and the length recorded (RESULTS). A midline incision was made the entire length of the colon, the contents removed and the colon weight and colon wall thickness recorded (RESULTS). A section of the colon was preserved in 20 volumes of 10% neutral buffered formalin (Richard-Allan Scientific, Cat. 5701, lot 378532, exp07/2020). The carcasses were disposed of.
3) involving several bowel loops=2
4) severe, proximal dilatation=3
2) linear ulceration <1 cm=1
3) two linear ulcers <1 cm=2
4) more sites of ulceration or one large ulcer=3

[1] = group mean, Group 3, 3 mg/kg PO daily, Day 7
[2] = group mean, Group 3, 3 mg/kg PO daily, Day 7, score 0-2
[3] = group mean, Group 3, 3 mg/kg PO daily, Day 7, score 0-3
[4] = individual rats, Group 3, 3 mg/kg PO daily, Day 7

## CCOc1cc([C@@H](CS(C)(=O)=O)N2C(=O)c3cccc(NC(C)=O)c3C2=O)ccc1OC [Apremilast, apremilast, reference compound]
Group 3, 3 mg/kg daily oral
  macroscopic disease scores: improvement of the macroscopic disease scores
  study day on which rats began to recover from TNBS-induced weight loss: 6 days
Group 3, 3 mg/kg daily oral, assuming a colonic score of 10 for vehicle-treated rats
  reduction in overall colonic score: 25%
Group 3, 3 mg/kg daily oral, through DAY 5
  body weight loss: 11%
[1]
  Average # Ulcers: 1
  Average Colon Length: 13.1 cm
  Average Colon Weight: 4.793 g
  Average Colonic Score: 7.6
  Average Ratio (colon length/colon weight): 3.470 cm/g
  Average Ulcer Length: 6.3 cm
  Average Wall Thickness: 3.0 mm
[2]
  Average Adhesions: 1.3
  Average Colon Wall Thickness, score: 1.5
[3]
  Average Strictures: 1.9
  Average Ulcers, score: 3.0
Group mean, Group 3, 3 mg/kg PO daily, study day 0, day of TNBS, before dosing
  Average Rat Weight: 214 g
Group mean, Group 3, 3 mg/kg PO daily, study day 1, before first dose
  Average Rat Weight: 207 g
Group mean, Group 3, 3 mg/kg PO daily, study day 2
  Average Rat Weight: 198 g
Group mean, Group 3, 3 mg/kg PO daily, study day 3
  Average Rat Weight: 195 g
Group mean, Group 3, 3 mg/kg PO daily, study day 4
  Average Rat Weight: 190 g
Group mean, Group 3, 3 mg/kg PO daily, study day 5
  Average Rat Weight: 190 g
Group mean, Group 3, 3 mg/kg PO daily, study day 6
  Average Rat Weight: 194 g
Group mean, Group 3, 3 mg/kg PO daily, study day 7
  Average Rat Weight: 201 g
Group mean, Group 3, 3 mg/kg PO daily, study day −3, before TNBS and dosing
  Average Rat Weight: 215 g
[4]
  # Ulcers: 1
  Colon Length: 10.0 cm and 15.5 cm and 12.0 cm (2×) and 11.5 cm and 13.0 cm and 15.0 cm and 16.0 cm
  Colon Weight: 3.608 g and 7.577 g and 2.860 g and 3.000 g and 4.462 g and 9.199 g and 6.085 g and 1.550 g
  Ratio (colon length/colon weight): 2.772 cm/g and 2.046 cm/g and 4.196 cm/g and 3.833 cm/g and 2.913 cm/g and 1.631 cm/g and 2.629 cm/g and 7.742 cm/g
  Ulcer Length: 6.5 cm (2×) and 5.5 cm and 6.0 cm and 6.4 cm and 8.0 cm and 7.5 cm and 4.0 cm
  Wall Thickness: 2.5 mm (3×) and 3.5 mm (2×) and 3.7 mm and 4.0 mm and 1.5 mm
Individual rats, Group 3, 3 mg/kg PO daily, Day 7, less than 1 mm=0, 1-3 mm=1, >3 mm=2
  Colon Wall Thickness, score: 1 (4×) and 2 (4×)
Individual rats, Group 3, 3 mg/kg PO daily, Day 7, none=0, linear ulceration <1 cm=1, two linear ulcers <1 cm=2, more sites or one large ulcer=3
  Ulcers, score: 3
Individual rats, Group 3, 3 mg/kg PO daily, Day 7, score none=0, mild=1, moderate=2, severe, proximal dilatation=3
  Strictures: 1 (3×) and 3 (4×) and 0
Individual rats, Group 3, 3 mg/kg PO daily, Day 7, score none=0, minimal=1, involving several bowel loops=2
  Adhesions: 1 (4×) and 2 (3×) and 0
Individual rats, Group 3, 3 mg/kg PO daily, Day 7, sum of adhesions, strictures, ulcers and wall thickness scores
  Colonic Score: 6 and 10 (2×) and 7 (2×) and 8 and 9 and 4
Individual rats, Group 3, 3 mg/kg PO daily, study day 0, day of TNBS, before dosing
  Rat Weight: 218 g and 213 g and 206 g and 220 g and 205 g and 217 g (2×) and 214 g
Individual rats, Group 3, 3 mg/kg PO daily, study day 1, before first dose
  Rat Weight: 210 g and 213 g and 198 g and 214 g (2×) and 197 g and 204 g and 206 g
Individual rats, Group 3, 3 mg/kg PO daily, study day 2
  Rat Weight: 198 g and 203 g (2×) and 183 g and 187 g and 205 g and 193 g and 214 g
Individual rats, Group 3, 3 mg/kg PO daily, study day 3
  Rat Weight: 190 g and 200 g and 180 g (2×) and 198 g (2×) and 187 g and 225 g
Individual rats, Group 3, 3 mg/kg PO daily, study day 4
  Rat Weight: 187 g (2×) and 200 g and 170 g and 188 g and 173 g and 183 g and 234 g
Individual rats, Group 3, 3 mg/kg PO daily, study day 5
  Rat Weight: 189 g and 200 g and 167 g and 182 g (2×) and 172 g and 185 g and 244 g
Individual rats, Group 3, 3 mg/kg PO daily, study day 6
  Rat Weight: 212 g and 202 g and 163 g and 176 g and 172 g and 186 g and 188 g and 250 g
Individual rats, Group 3, 3 mg/kg PO daily, study day 7
  Rat Weight: 236 g and 210 g and 178 g (2×) and 177 g and 179 g and 194 g and 256 g
Individual rats, Group 3, 3 mg/kg PO daily, study day −3, before TNBS and dosing
  Rat Weight: 218 g and 212 g and 210 g and 219 g and 209 g and 220 g and 217 g and 213 g

## Nc1ccc(O)c(C(=O)O)c1 [Example 5-ASA, 5-aminosalacyclic acid, reference compound]
Rat TNBS model, stated without data
  activity in the TNBS model: inactive
